Source: US20160050929A1, “METHODS OF CONTROLLING NEONICOTINOID RESISTANT PESTS” (SYNGENTA PARTICIPATIONS AG, priority 2013, published 2016)

Test system: Orius laevigatus
Assay: Safety to beneficial species: test on Orius laevigatus
Assay type: in vivo
Settings: Orius laevigatus adults; for Corrected Mortality (%) 2 DAI: 2 days after infestation; for Corrected Mortality (%) 4 DAI: 4 days after infestation
Procedure: Phaseolus vulgaris var. Fulvio (french bean) plants were reduced to one leaf. With the leaves held in a horizontal position, a track sprayer was used to treat the plants at a rate corresponding to […]. Once dry, leaf discs were collected from the plants and placed treated side up in petri dishes containing 1% water agar.
A paper triangle was added for shelter, and a suitable amount of Ephestia eggs were added as a food supply. Five (5) Orius laevigatus (predatory bug, Syngenta Bioline) adults were added and the dishes closed with a cotton filter and perforated plastic lid. The dishes were incubated in a climate chamber at 25° C., 75% relative humidity, 16:8 h light/dark regime.
Six replicates were provided for each treatment and concentration level. The number of living and dead Orius laevigatus were counted two and four days after infestation (DAI). At the day two evaluation the food supply was replenished.

Row | Compound | Corrected Mortality (%) 2 DAI (rate 50 ppm) [%] | Corrected Mortality (%) 4 DAI (rate 50 ppm) [%] | Corrected Mortality (%) 2 DAI (rate 100 ppm) [%] | Corrected Mortality (%) 4 DAI (rate 100 ppm) [%] | Corrected Mortality (%) 2 DAI (rate 200 ppm) [%] | Corrected Mortality (%) 4 DAI (rate 200 ppm) [%]
1 | C#CCN1[C@@H]2CC[C@H]1C[C@](C#N)(c1cncc(C#C)c1)C2 [Compound 1.070] | 0 | 0 | 0 | 0 | 0 | 0
2 | O=[N+]([O-])NC1=NCCN1Cc1ccc(Cl)nc1 [Imidacloprid, imidacloprid] | 11 | 30 | 43 | 65 | 75 | 100
